Assay results: patent US9982005B2, “Macrolides and methods of their preparation and use” (President and Fellows of Harvard College, priority 2013, dated 2018)
In brackets after ≈: the same amount, converted by molar mass. Where two headings read alike, the source gives them in different places.

Key:
[1] = from CC[C@@H](O)[C@@]1(C)OC(=O)N(CCCCN=[N+]=[N-])[C@@H]1[C@@H](C)NC[C@H](C)C[C@@](C)(OC)[C@H](O[C@@H]1OC(C)CC(N(C)C)C1OC(=O)OC)[C@@H](C)C(=O)CC(=O)OC(C)(C)C; ester bond; benzene; 9.08 mM; 80.0 °C; 12.0 h
EC107 E. coli ATCC25922 = assay: broth dilution MIC, E. coli EC107; type: cell-based; conditions: Escherichia coli, read-out: MIC
Summary of the method: (§1)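 CLSI procedure, broth dilution format, endpoint = MIC. Azithromycin as control macrolide.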

E. faecalis strains = assay: MIC against E. faecalis strains (Table M8); type: cell-based
[2] = tested on: Spn160 S. pneumoniae ermB unknown mefA positive; assay: broth dilution MIC, S. pneumoniae Spn160; type: cell-based; conditions: Streptococcus pneumoniae; Spn160 S. pneumoniae ermB unknown mefA positive; read-out: MIC
Source text: (§2) We have collected MIC data for a total of 50 novel macrolides that this platform has produced against over 21 unique strains of B. subtilis, E. coli, S. aureus, S. pneumoniae, and H. influenzae, including several multidrug-resistant strains, with a special focus on macrolide resistant mechanisms (vide supra). Azithromycin was included as a control macrolide. CLSI standard procedures for broth dilution MIC determination were used. […] These genotypes can be constitutive or inducible. The finding that C4-epi (unnatural) isomers of the “azaketolide” macrolide class have enhanced activities relative to C4 natural isomers is very exciting.

S. aureus strains = assay: MIC against S. aureus strains (Table M7); type: cell-based; conditions: for MIC: Staphylococcus aureus
Summary of the method: as §1

HI281 H. influenzae = assay: broth dilution MIC, H. influenzae HI281; type: cell-based; conditions: Haemophilus influenzae
Source text: as §2

[3] = tested on: Spn1537 S. pneumoniae ermB positive mefA positive; assay: broth dilution MIC, S. pneumoniae Spn1537; type: cell-based; conditions: Streptococcus pneumoniae
Source text: as §2

[4] = tested on: Spn1427 S. pneumoniae ermB positive mefA negative; assay: broth dilution MIC, S. pneumoniae Spn1427; type: cell-based; conditions: Streptococcus pneumoniae
Source text: as §2

E. coli (MC4100) = assay: MIC, E. coli MC4100; type: cell-based; conditions: Escherichia coli, round 2, read-out: MIC
Summary of the method: as §1

[5] = tested on: SA183 S. aureus ermA positive msrA unknown; assay: broth dilution MIC, S. aureus SA183; type: cell-based; conditions: Staphylococcus aureus
Source text: as §2

H. influenzae strains = assay: MIC against H. influenzae strains (Table M8); type: cell-based; conditions: Haemophilus influenzae
Summary of the method: as §1

[6] = tested on: BS1723 B. subtilis BS168 WT wild type; assay: broth dilution MIC, B. subtilis BS1723; type: cell-based; conditions: Bacillus subtilis, BS1723 B. subtilis BS168 WT wild type; read-out: MIC
Summary of the method: as §1

[7] = tested on: SA557 S. aureus ermA unknown msrA positive; assay: broth dilution MIC, S. aureus SA557; type: cell-based; conditions: Staphylococcus aureus; SA557 S. aureus ermA unknown msrA positive; read-out: MIC
Source text: as §2

[8] = tested on: Spn 106 S. pneumonia ATCC49619; assay: broth dilution MIC, S. pneumoniae Spn 106; type: cell-based; conditions: Streptococcus pneumoniae, ATCC49619
Source text: as §2

BS1725 B. subtilis ermC = assay: broth dilution MIC, B. subtilis BS1725; type: cell-based; conditions: Bacillus subtilis
Summary of the method: as §1

EC878 E. coli tolC = assay: broth dilution MIC, E. coli EC878; type: cell-based; conditions: Escherichia coli
Summary of the method: as §1

E. coli strains = assay: MIC against E. coli strains (Table M7); type: cell-based; conditions: Escherichia coli, ATCC25922, E. coli ATCC 25922
Summary of the method: as §1

[9] = tested on: SA1707 S. aureus ermA negative msrA positive; assay: broth dilution MIC, S. aureus SA1707; type: cell-based; conditions: Staphylococcus aureus
Source text: as §2

[10] = tested on: HI175 H. influenzae ATCC49247; assay: broth dilution MIC, H. influenzae HI175; type: cell-based; conditions: Haemophilus influenzae
Source text: as §2

S. pneumoniae strains = assay: MIC against S. pneumoniae strains (Tables M7, M8); type: cell-based; conditions: Streptococcus pneumoniae
Source text: CLSI standard procedures for broth dilution MIC determination were used. […] These genotypes can be constitutive or inducible.

K. pneumoniae strains = assay: MIC against K. pneumoniae strains (Table M8); type: cell-based; conditions: Klebsiella pneumoniae, K. pneumoniae 10031
EC882 E. coli imp = assay: broth dilution MIC, E. coli EC882; type: cell-based; conditions: Escherichia coli
Summary of the method: as §1

[11] = tested on: SA101 S. aureus ATCC29213; assay: broth dilution MIC, S. aureus SA101; type: cell-based; conditions: Staphylococcus aureus, ATCC29213, SA101 S. aureus ATCC29213; read-out: MIC
Summary of the method: as §1

[12] = tested on: Spn1533 S. pneumoniae ermB positive mefA positive; assay: broth dilution MIC, S. pneumoniae Spn1533; type: cell-based; conditions: Streptococcus pneumoniae
Source text: as §2

[13] = tested on: Spn1509 S. pneumoniae ermB positive mefA negative; assay: broth dilution MIC, S. pneumoniae Spn1509; type: cell-based; conditions: Streptococcus pneumoniae
Source text: as §2

[14] = tested on: SA506 S. aureus ermA positive msrA unknown; assay: broth dilution MIC, S. aureus SA506; type: cell-based; conditions: Staphylococcus aureus
Source text: as §2

[15] = tested on: S. aureus (Newman, clinical isolate); assay: MIC, S. aureus Newman; type: cell-based; conditions: Staphylococcus aureus, S. aureus (Neuman, clinical isolate), round 2
Summary of the method: as §1

[16] = tested on: SA1708 S. aureus ermA positive msrA negative; assay: broth dilution MIC, S. aureus SA1708; type: cell-based; conditions: Staphylococcus aureus
Source text: as §2

[17] = tested on: SA418 S. aureus ermA negative msrA positive; assay: broth dilution MIC, S. aureus SA418; type: cell-based; conditions: Staphylococcus aureus
Source text: as §2

CC[C@H]1OC(=O)CC(=O)[C@H](C)[C@@H](O[C@@H]2OC(C)CC(N(C)C)C2OC(=O)OC)[C@](C)(OC)C[C@@H](C)CN[C@H](C)[C@H]2N(CCCCN=[N+]=[N-])C(=O)O[C@]12C (stereo partly drawn)
ring closure, yield of all isomers [1]: 84%

CC[C@H]1OC(=O)[C@H](C)[C@@H](O[C@H]2C[C@@](C)(OC)[C@@H](O)[C@H](C)O2)[C@H](C)[C@@H](O[C@@H]2O[C@H](C)C[C@H](N(C)C)[C@H]2O)[C@](C)(O)C[C@@H](C)CN(C)[C@H](C)[C@@H](O)[C@]1(C)O [Azithromycin, reference compound]
MIC (EC107 E. coli ATCC25922): 4 µg/mL (≈ 5.34 µM)
MIC E. faecalis (29212) (E. faecalis strains): 16 µg/mL (≈ 21.4 µM)
MIC (E. faecalis strains; Enterococcus faecalis, E. faecalis 29212): 8 µg/mL (≈ 10.7 µM)
MIC [2]: 2 µg/mL (≈ 2.67 µM)
MIC S. aureus (ATCC 29213) (S. aureus strains; S. aureus ATCC 29213): 1 µg/mL (≈ 1.34 µM)
MIC (S. aureus strains; ATCC29213, S. aureus ATCC 29213, read-out: MIC S. aureus (ATCC 29213)): 2 µg/mL (≈ 2.67 µM)
MIC (S. aureus strains; S. aureus 183, read-out: MIC S. aureus (183)): > 32 µg/mL
MIC (S. aureus strains; S. aureus 506, read-out: MIC S. aureus (506)): > 32 µg/mL
MIC (S. aureus strains; S. aureus 1708, read-out: MIC S. aureus (1708)): > 32 µg/mL
MIC (S. aureus strains; USA300, S. aureus USA300, read-out: MIC S. aureus (USA300)): > 32 µg/mL
MIC (HI281 H. influenzae): 4 µg/mL (≈ 5.34 µM)
MIC [3]: > 32 µg/mL
MIC [4]: > 32 µg/mL
MIC (E. coli (MC4100)): 8 µg/mL (≈ 10.7 µM)
MIC [5]: > 32 µg/mL
MIC (H. influenzae strains; H. influenzae 49247, read-out: MIC H. influenzae (49247)): 0.25 µg/mL (≈ 0.334 µM)
MIC (H. influenzae strains; H. influenzae 49766, read-out: MIC H. influenzae (49766)): 2 µg/mL (≈ 2.67 µM)
MIC [6]: 0.5 µg/mL (≈ 0.668 µM)
MIC [7]: > 32 µg/mL
MIC [8]: 0.0625 µg/mL (≈ 0.0834 µM)
MIC (BS1725 B. subtilis ermC; BS1725 B. subtilis ermC (+ery)): > 32 µg/mL
MIC (BS1725 B. subtilis ermC; BS1725 B. subtilis ermC (−ery)): > 32 µg/mL
MIC (EC878 E. coli tolC): 0.5 µg/mL (≈ 0.668 µM)
MIC (E. coli strains): 8 µg/mL (≈ 10.7 µM)
MIC [9]: > 32 µg/mL
MIC [10]: 2 µg/mL (≈ 2.67 µM)
MIC (S. pneumoniae strains; S. pneumoniae 160, read-out: MIC S. pneumonae (160)): 2 µg/mL (≈ 2.67 µM)
MIC (S. pneumoniae strains; S. pneumoniae 1509, read-out: MIC S. pneumoniae (1509)): > 32 µg/mL
MIC (S. pneumoniae strains; S. pneumoniae 1533, read-out: MIC S. pneumoniae (1533)): > 32 µg/mL
MIC (S. pneumoniae strains; S. pneumoniae 1537, read-out: MIC S. pneumoniae (1537)): > 32 µg/mL
MIC (K. pneumoniae strains): 2 µg/mL (≈ 2.67 µM)
MIC (EC882 E. coli imp): 0.0625 µg/mL (≈ 0.0834 µM)
MIC [11]: 1 to 2 µg/mL (≈ 1.34 to 2.67 µM)
MIC [12]: > 32 µg/mL
MIC [13]: > 32 µg/mL
MIC [14]: > 32 µg/mL
MIC [15]: 1 µg/mL (≈ 1.34 µM)
MIC [16]: > 32 µg/mL
MIC [17]: > 32 µg/mL

CC[C@H]1OC(=O)C(C)C(=O)[C@@H](C)[C@@H](O[C@@H]2OC(C)CC(N(C)C)C2O)[C@](C)(OC)C[C@@H](C)CN[C@H](C)[C@H]2N(CCCCn3cc(-c4ccccn4)nn3)C(=O)O[C@]12C (stereo partly drawn) [FSM-20754]
MIC (EC107 E. coli ATCC25922): 16 µg/mL (≈ 19.7 µM)
MIC [2]: 0.25 µg/mL (≈ 0.307 µM)
MIC (HI281 H. influenzae): 8 µg/mL (≈ 9.83 µM)
MIC [3]: > 32 µg/mL
MIC [4]: > 32 µg/mL
MIC [5]: > 32 µg/mL
MIC [6]: 2 µg/mL (≈ 2.46 µM)
MIC [7]: 4 µg/mL (≈ 4.91 µM)
MIC [8]: 0.0625 µg/mL (≈ 0.0768 µM)
MIC (BS1725 B. subtilis ermC; BS1725 B. subtilis ermC (+ery)): 32 µg/mL (≈ 39.3 µM)
MIC (EC878 E. coli tolC): 0.5 µg/mL (≈ 0.614 µM)
MIC [9]: 4 µg/mL (≈ 4.91 µM)
MIC [10]: 2 µg/mL (≈ 2.46 µM)
MIC (EC882 E. coli imp): 0.125 µg/mL (≈ 0.154 µM)
MIC [11]: 2 µg/mL (≈ 2.46 µM)
MIC [12]: > 32 µg/mL
MIC ([13]; Spn1509 S. pneumoniae ermB positive mefA negative, read-out: MIC): 4 µg/mL (≈ 4.91 µM)
MIC [14]: > 32 µg/mL
MIC [16]: 4 µg/mL (≈ 4.91 µM)
MIC [17]: 4 µg/mL (≈ 4.91 µM)
